In patent publication US8273753B2, “Polymorph B of N-{2-Fluoro-5-[3-(thiophene-2-carbonyl)-pyrazolo[1,5-a]pyrimidin-7-yl]-phenyl}-N-methyl-acetamide” (Ferrer International, S.A., priority 2006, dated 2012):

Legend:
Type in all cases: in vivo
[1] = tested on: mice; assay: Spontaneous motor activity in mice after oral administration (induction of sedation); settings: for ED50: Mus musculus, oral administration, spontaneous motor activity, read-out: ED50 sedation (dose that induces sedation in 50% of animals)
Experimental: The effect of oral administration of both indiplon and the compound of the present invention on the spontaneous motor activity in mice is an accepted model to evaluate the induction of the sedation, an experiment considered predictive of hypnotic efficacy. In this experiment, the ED50—the dose that induces sedation in 50% of animals—was calculated.

[2] = tested on: mice; assay: EEG recording of the sleep-wake cycle in mice; settings: FIG. 7; for Effect on the three sleep parameters (time of wake, slow wave sleep, paradoxical sleep): mice, EEG, doses ED50, 3-fold and 6-fold
Experimental: This increased sedative/hypnotic efficacy was confirmed by electroencephalographyc (EEG) experiments, when the recording of the sleep-wake cycle in mice was evaluated. Based on the previous experiment, doses were chosen and both compounds were tested at equipotent pharmacological doses (the ED50, 3-fold and 6-fold for both cases).
In FIG. 7, results are expressed as the mean time (min±SEM) spent in each behavioral state during a recording period of 6 h in the same animals (n=9).

[3] = tested on: mice; assay: Two-way active avoidance paradigm in mice (amnesia liability); settings: oral administration; for MED amnesia (minimal effective dose that induces statistically significant impairment of memory): two-way active avoidance
Experimental: Finally, a third experiment to evaluate adverse effects was performed. The model was the two-way active avoidance paradigm, which represents a behavioural test useful for evaluating learning and memory processes in mice. In this case, the amnesia liability index was obtained. Since it was reported that benzodiazepine-like drugs induce amnesia, this index allows to determine the margin between the preclinical effective doses that induce sedation compared to the minimal effective dose that induce statistically significant impairment of memory in mice (MED amnesia/ED50 sedation). Therefore, the amnesic liability index was calculated for both compounds. The results obtained are included in Table 1

[4] = mice n=9, 6 h recording period, largest dose

Compound	ED50 [1] [mg/kg]	Slow wave sleep (SWS) mean time [2, 4]	Effect on the three sleep parameters (time of wake, slow wave sleep, paradoxical sleep) [2]	Amnesic liability Index (MED amnesia/ED50 sedation) [3] [fold margin]	MED amnesia (minimal effective dose that induces statistically significant impairment of memory) [3] [mg/kg]	Sedative potency relative to indiplon (more potent) ([1]; oral, ED50 0.13 vs 0.2 mg/Kg) [%]	Paradoxical sleep (PS) time, change [2, 4]	Waking (W) time, change [2, 4]	Greater margin between sedation induction and amnesia than indiplon [3] [fold]
CC(=O)N(C)c1cccc(-c2ccnc3c(C(=O)c4cccs4)cnn23)c1 [Indiplon, N-{3-[3-(thiophene-2-carbonyl)-pyrazolo[1,5-a]pyrimidin-7-yl]-phenyl}-N-methyl-acetamide, reference compound]	0.2	less than 140 min	effective only in one parameter (slow wave sleep)	50	10	–	–	–	–
CC(=O)N(C)c1cc(-c2ccnc3c(C(=O)c4cccs4)cnn23)ccc1F [Compound (I), N-{2-Fluoro-5-[3-(thiophene-2-carbonyl)-pyrazolo[1,5-a]pyrimidin-7-yl]-phenyl}-N-methyl-acetamide]	0.13	up to 140 min	statistically significant improvement on all three of the parameters evaluated	75	10	35	increase	decrease	25
